Measurements published in the NIST ThermoML archive (doi:10.1021/je200373q).

Test: xn = mol fraction of the nth substance listed
Settings: 101 kPa, Liquid, Vibrating tube method

CCCCC [pentane] + CCCCCCCC
mass density [kg/m3]
Settings	x1 = 0.1002	x1 = 0.2008	x1 = 0.3023	x1 = 0.4019	x1 = 0.5001	x1 = 0.5982	x1 = 0.7022	x1 = 0.8003	x1 = 0.8991
278.15 K	709.35	704.52	698.24	691.87	685.19	678	669.63	660.99	651.39
283.15 K	705.34	700.46	694.11	687.66	680.91	673.65	665.18	656.45	646.73
288.15 K	701.31	696.38	689.94	683.43	676.6	669.26	660.68	651.85	642.04
293.15 K	697.26	692.29	685.74	679.16	672.26	664.83	656.15	647.21	637.29
298.15 K	693.19	688.16	681.52	674.87	667.88	660.37	651.58	642.52	632.49
303.15 K	689.09	684.01	677.28	670.54	663.47	655.87	646.96	637.79	627.64
308.15 K	684.97	679.84	673	666.19	659.03	651.33	642.31	633	622.72
313.15 K	680.83	675.63	668.7	661.8	654.59	646.75	637.61	628.16	617.96
318.16 K	676.64	671.38	664.36	657.38	650.06	642.12	632.85	623.27	–
323.16 K	672.43	667.11	659.99	652.92	645.5	637.45	628.04	–	–
328.16 K	668.2	662.81	655.59	648.42	640.9	632.73	–	–	–
333.15 K	663.94	658.48	651.16	–	–	–	–	–	–
338.15 K	659.63	654.1	646.68	–	–	–	–	–	–
343.15 K	655.28	649.68	642.13	–	–	–	–	–	–
348.15 K	650.9	645.21	637.57	–	–	–	–	–	–
353.15 K	646.47	640.7	632.94	–	–	–	–	–	–
358.15 K	642	636.15	628.27	–	–	–	–	–	–
363.15 K	637.48	631.54	623.54	–	–	–	–	–	–

CCCCC [pentane] + CCCCCCCCC
mass density [kg/m3]
Settings	x1 = 0.1034	x1 = 0.205	x1 = 0.3028	x1 = 0.4006	x1 = 0.5016	x1 = 0.5988	x1 = 0.6992	x1 = 0.7993	x1 = 0.8993
273.15 K	727.17	721.15	714.81	707.86	700	691.84	682.27	672.39	659.26
278.15 K	723.31	717.24	710.84	703.82	695.88	687.64	677.96	667.97	654.69
283.15 K	719.43	713.31	706.84	699.75	691.73	683.4	673.62	663.51	650.07
288.15 K	715.53	709.35	702.82	695.66	687.56	679.14	669.25	659.01	645.41
293.15 K	711.62	705.38	698.79	691.54	683.36	674.84	664.84	654.47	640.71
298.15 K	707.69	701.39	694.73	687.41	679.13	670.52	660.39	649.88	635.96
303.15 K	703.75	697.38	690.65	683.24	674.87	666.16	655.91	645.26	631.15
308.15 K	699.78	693.35	686.54	679.05	670.58	661.76	651.39	640.58	626.28
313.15 K	695.79	689.3	682.41	674.83	666.26	657.33	646.82	635.85	621.36
318.15 K	691.78	685.21	678.25	670.58	661.9	652.86	642.21	631.07	616.37
323.15 K	687.74	681.1	674.06	666.29	657.51	648.34	637.54	626.24	–
328.15 K	683.68	676.97	669.83	661.97	653.07	643.78	632.82	621.34	–
333.15 K	679.6	672.8	665.58	657.61	648.6	639.17	628.05	616.38	–
338.15 K	675.48	668.6	661.28	653.21	644.08	634.51	–	–	–
343.15 K	671.34	664.37	656.96	648.78	–	–	–	–	–
348.15 K	667.16	660.1	652.59	644.3	–	–	–	–	–
353.15 K	662.95	655.79	648.19	639.79	–	–	–	–	–
358.15 K	658.7	651.45	643.74	–	–	–	–	–	–
363.15 K	654.42	647.07	639.25	–	–	–	–	–	–
